Data as given in patent publication US20040127439A1, “Introduction of the wld gene for prevention of axonal degeneration in neurological diseases” (priority 2004, published 2004).
Where two headings read alike, the source gives them in different places.

Assays:
[1] = system: C57BL/6 cultured neurites; experiment: Vincristine neuropathy in C57BL/6 mouse DRG cultures; assay type: cell-based
Protocol: DRGs were allowed to mature for 5 days to create a lush halo of neurites. […] This date was defined as treatment day 0. […] Cultures were monitored and imaged on day 0, day 4, day 8 and day 10 of treatment using video microscopy.
Measures of axonal survival were the length of longest remaining axon, and the area of remaining DRG halo, as determined by serial phase-contrast video microscopy (FIG. 6). The axonal length was measured from the center of the DRG to the visible distal end of the axon. […] Data were thus analyzed as percent of day 0.

C57BL/6 DRG axons = experiment: Vincristine withdrawal in C57BL/6 mouse DRG cultures; assay type: cell-based; settings: 0.05 μM vincristine for 24 hours, 4 days after exposure
Protocol: (§1) The methods for DRG culture have been previously described.
(§2) Cultures were measured for length of longest axon and area of the DRG halo at days 4, 8, 12, 16 and 20. Lengths were measured from the center of the DRG to the visible distal end of the axon, and areas were calculated by tracing the circumference crested by connecting the tips of the remaining axons. […] Comparisons were made between quantitative data for C57BL/6 and Wld^S axons. For assessment of growth, day 4 observations in Wld^S were compared to all succeeding days using ANOVA for repeated measures.

Wld^S DRG axons = experiment: Vincristine withdrawal in Wld^S mouse DRG cultures; assay type: cell-based; settings: 0.05 μM vincristine for 24 hours
Protocol: as §1, §2

DRG neurites = settings: for reduction in DRG area versus day 0: vincristine 0.01 μM; for Area (DRG neuritic halo) / Length (longest neurite): Vin 0.01 μM, AK295 50 μM, EGTA 2 mM, sulfate salt
Protocol: On the day of DRG culture, the dishes are washed twice with PBS buffer (pH 7.4), filled with 550 μl medium and pre-incubated at 37 C for at least 2 hours. Fifteen-day old embryos (E15) are removed from pregnant Sprague-Dawley rats (Charles River), and spinal cords with cervical and thoracic DRGs attached are dissected into Leibovitz L-15 medium (GIBCO). Ganglia are separated from the spinal cord, stripped of their connective tissue sheaths and roots, and are then pooled and washed twice with PBS buffer (pH 7.4). DRGs are plated (4 per dish) in culture media and incubated at 37° C. in 5% carbon dioxide for 4 hours to allow DRGs to attach to the substrate. Medium is then added to bring the total volume to 1 ml. […] Calcium-free medium is prepared in the same manner, replacing MEM with S-MEM (GIBCO).
At the end of the treatment period (see below) DRGs are fixed for 30 minutes with 4% paraformaldehyde. Cultures are then rinsed with 0.1M TBS buffer, and treated sequentially with 3% H2O2, TBS-Triton, and 4% normal goat serum (NGS), each for 30 minutes at room temperature. DRGs are incubated at 4 C overnight in monoclonal antibody to MAP5 (1:500, Sigma). After washing in TBS-Triton, DRGs are incubated for 60 minutes in biotinylated secondary antibody, rinsed with TBS and reacted with avidin-biotin complex solution (ABC; Vector Labs) for one hour. Color is generated by incubation for 10 minutes in diaminobenzidine (DAB) solution, enhanced by addition of 0.025% cobalt chloride and 0.02% nickel ammonium sulfate. Stained tissue is rinsed, air dried and cover-slipped for microscopy with Crystal/Mount (Biomeda).
This method of allowing neuritic extension to proceed before addition of a neurotoxin tests the effect of the toxin on established neurites as opposed to the effect on primary neuritic outgrowth.
After day 5 of culture, the media is changed to that containing the experimental treatment. This date is defined as treatment day 0. Cultures are monitored and imaged daily using video microscopy. […] AK 295 (Z-leu-Abu-(CH2)3-4-morpholinyl, gift of Dr. James Powers, Georgia Institute of Technology), is dissolved in 100% DMSO and is then diluted to its final concentration with culture medium. The final concentration of DMSO is 0.05%. Phenylmethylsulfonyl fluoride (PMSF) is manufactured by and commercially available from Sigma.
After 6 days of treatment (11 days in culture) immunostained DRGs are quantitated for degree of axonal degeneration. Images of the DRGs and neurites are captured onto disk using a computerized video imaging system, and are analyzed using NIH Image version 1.61. DRG areas are calculated by tracing the outside circumference of the remaining culture halo. The length of the longest neurite of each DRG is measured from the center of the DRG to the distal end of the neurite, so that cultures without remaining neurites still have positive values. These quantitative data are subjected to ANOVA, with post-test correction for multiple comparisons.

[2] = vincristine 0.01 μM, Day 4, C57BL/6
[3] = vincristine 0.01 μM, Day 10, C57BL/6
[4] = vincristine 0.02 μM, Day 4, C57BL/6
[5] = vincristine 0.02 μM, Day 8, C57BL/6
[6] = vincristine 0.02 μM, Day 10, C57BL/6
[7] = vincristine 0.05 μM, Day 4, C57BL/6
[8] = vincristine 0.05 μM, Day 8, C57BL/6
[9] = vincristine 0.05 μM, Day 10, C57BL/6
[10] = vincristine 0.1 μM, Day 4, C57BL/6
[11] = vincristine 0.1 μM, Day 8, C57BL/6
[12] = vincristine 0.1 μM, Day 10, C57BL/6
[13] = Day 3 of treatment, listed as Vin
[14] = Day 4 of treatment, listed as Vin
[15] = Day 6 of treatment, PMSF 50 μM, listed as Vin

Vincristine sulfate salt
halo area at day 10 compared to day 0 ([1]; C57BL/6, vincristine 0.01 μM): 42.86±7.30%
length of longest axons at day 10 compared to day 0 ([1]; C57BL/6, vincristine 0.01 μM): 50.99±5.97%
halo area at day 10 compared to day 0 ([1]; C57BL/6, vincristine 0.1 μM): 0.45±0.09%
length of longest axons at day 10 compared to day 0 ([1]; C57BL/6, vincristine 0.1 μM): 3.56±0.62%
Area of DRG Halo [1, 2]: 7.34 ± 0.78 mm^2
Length of Longest Neurite [1, 2]: 1.77 ± 0.12 mm
Area of DRG Halo ([1]; vincristine 0.01 μM, Day 8, C57BL/6): 5.79 ± 0.86 mm^2
Area of DRG Halo [1, 3]: 4.42 ± 0.85 mm^2
Length of Longest Neurite [1, 3]: 1.22 ± 0.17 mm
Area of DRG Halo [1, 4]: 4.56 ± 1.10 mm^2
Length of Longest Neurite [1, 4]: 1.28 ± 0.22 mm
Area of DRG Halo [1, 5]: 1.14 ± 0.49 mm^2
Length of Longest Neurite [1, 5]: 0.53 ± 0.16 mm
Area of DRG Halo [1, 6]: 0.56 ± 0.27 mm^2
Length of Longest Neurite [1, 6]: 0.41 ± 0.13 mm
Area of DRG Halo [1, 7]: 1.20 ± 0.47 mm^2
Length of Longest Neurite [1, 7]: 0.32 ± 0.08 mm
Area of DRG Halo [1, 8]: 0.05 ± 0.01 mm^2
Length of Longest Neurite [1, 8]: 0.09 ± 0.01 mm
Area of DRG Halo [1, 9]: 0.04 ± 0.01 mm^2
Length of Longest Neurite [1, 9]: 0.07 ± 0.01 mm
Area of DRG Halo [1, 10]: 0.46 ± 0.19 mm^2
Length of Longest Neurite [1, 10]: 0.30 ± 0.09 mm
Area of DRG Halo [1, 11]: 0.04 ± 0.01 mm^2
Length of Longest Neurite [1, 11]: 0.08 ± 0.01 mm
Area of DRG Halo [1, 12]: 0.04 ± 0.01 mm^2
Length of Longest Neurite [1, 12]: 0.08 ± 0.01 mm
DRG area, % of control values (C57BL/6 DRG axons): 32%
axon length, % of control values (C57BL/6 DRG axons): 35%
duration of growth arrest (Wld^S DRG axons): 10 days
area after resumed growth, % of control values (Wld^S DRG axons; 20-day observation period): 150%
length after resumed growth, % of control values (Wld^S DRG axons; 20-day observation period): 125%
process of axonal degeneration (in words) (DRG neurites; 0.01 μM): relatively slow
reduction in DRG area versus day 0 (DRG neurites; 4 days exposure): 91.5%
reduction in DRG area versus day 0 (DRG neurites; 6 days exposure): 97.9%
Area (DRG neuritic halo) (DRG neurites; [13]): 6.78 ± 1.06 (17) mm^2
Length (longest neurite) (DRG neurites; [13]): 1.62 ± 0.19 mm
Area (DRG neuritic halo) (DRG neurites; Day 3 of treatment): 6.78±1.06 mm^2
Length (longest neurite) (DRG neurites; Day 3 of treatment): 1.62±0.19 mm
Area (DRG neuritic halo) (DRG neurites; [14]): 2.45 ± 0.74 (13) mm^2
Length (longest neurite) (DRG neurites; [14]): 0.91 ± 0.19 mm
Area (DRG neuritic halo) (DRG neurites; Day 4 of treatment): 2.45±0.74 mm^2
Length (longest neurite) (DRG neurites; Day 4 of treatment): 0.91±0.19 mm
Area (DRG neuritic halo) (DRG neurites; [15]): 0.61 ± 0.21 (48) mm^2
Length (longest neurite) (DRG neurites; [15]): 0.37 ± 0.06 mm
Area (DRG neuritic halo) (DRG neurites; Day 6 of treatment, PMSF 50 μM): 0.16±0.61 mm^2
Length (longest neurite) (DRG neurites; Day 6 of treatment, PMSF 50 μM): 0.37±0.06 mm
time within which axonal degeneration occurs (DRG neurites; concentrations 0.05 μM, 5 day-old cultures): 1 to 3 days
reduction in length of the longest axons versus day 0 (DRG neurites; day 3, vincristine 0.01 μM): 57.6%
reduction in length of the longest axons versus day 0 (DRG neurites; day 4, vincristine 0.01 μM): 76.2%
reduction in length of the longest axons versus day 0 (DRG neurites; day 6, vincristine 0.01 μM): 90.3%
reduction in DRG area versus day 0 (DRG neurites; three days exposure): 76.6%
time until fibers are completely replaced by axonal debris (DRG neurites; vincristine exposure (FIG. 1: 0.01 μM)): 5 to 6 days
